The subject of one data set is β′ subunit (RNAP). Details: method as in PMID 26764017, PMID 23751807. The note with it: cited from earlier work.
Another data set relates to B. subtilis WB800N. The data set can be described thus: MIC assay, B. subtilis. The data set is classed as cell-based, Bacillus subtilis. The note with it: for MIC: Bacillus subtilis, WB800N. As to the method: (§1) Growth inhibition tests and minimum inhibitory concentration (MIC) assay on the gram-positive B. subtilis WB800N strain (nprE aprE epr bpr mpr::ble nprB::bsr Δvpr wprA::hyg cm::neo; NeoR) (MoBiTec GmbH, Lotzestraße, Göttingen, Germany) and on the gram-negative nonpathogenic E. coli DH10 T1R strain (F-mcrA Δ(mrr-hsdRMS-mcrBC) Φ80lacZ ΔM15 ΔlacX74 recA1 endA1 araD139Δ(ara, leu)7697 galU galK λ-rpsL nupG) (Invitrogen, Waltham, MA, USA) were performed as described in Sartini et al..
(§2) Antimicrobial activity was determined by means of the minimum inhibitory concentration (MIC) assay, according to the Clinical & Laboratory Standards Institute (CLSI) guidelines described in ([37]). The assays were performed in 96-well microplates in 20% MH broth in PBS. A 2.5 × 10^5 CFU/mL medium-phase bacterial suspension in 20% MH broth was used and the microplates were incubated at 37 °C for 24 h. […] The results were derived from at least three independent experiments conducted in duplicate.

For data set [1], the system named is B. subtilis (WB800N strain). Put plainly: Bacterial growth inhibition assay, B. subtilis. In kind it is cell-based, Bacillus subtilis. The settings on record: for inhibition at 100 µM: Bacillus subtilis, 8 h, read-out: Growth Inhibition at 100 μM (8 h) B. subtilis.
From the text: (§3) To avoid the characterization of hit compounds lacking antibacterial activity, we subsequently tested the ability of the 18 ELISA-validated compounds to inhibit bacterial growth, using the previously identified indol-3-yl-urea derivative 4 as a reference. Two nonpathogenic bacteria were employed for this assay: the gram-positive B. subtilis (WB800N strain) and the gram-negative E. coli (DH10T1R strain). […] The remaining twelve compounds might have been unable to cross the bacterial membrane or were modified and/or extruded from the cell. […] This additional assay, which was conducted on a wild-type (W303) rather than on the hyperpermeable Δerg6 strain, is not part of our streamlined antibiotic discovery workflow and was only aimed at verifying the cytotoxicity prediction reliability of yBRET.
as §1
(§4) For growth inhibition assays, bacteria were grown to exponential phase (OD600 = 0.5–0.6) and then diluted 100-fold with LB. PMBN (2 μg/mL) for E. coli was added at this stage. Yeast strain W303-1A (leu2-3,112 trp1-1 can1-100 ura3-1 ade2-1 his3-11,15) was grown at 30 °C in YPD to an OD600 of 0.5. The growth of the bacterial (or yeast) cells was monitored for 8 h in the presence of the candidate compounds dissolved in DMSO (final concentration of 5%) or an equivalent amount of DMSO as a negative control (“vehicle”). Growth inhibition assays were conducted in triplicate in 96-well plates (Microtest Plate 96 Well, F, flat base, Sarstedt, Nümbrecht, North Rhine-Westphalia, Germany) by monitoring cell growth (OD600) every 30 min with a microplate reader (TriStar^2 LB 942; Berthold Technologies, Bad Wildbad, Baden-Württemberg, Germany) for bacteria and every 1 h for yeast.

In data set [2] the test system is Saccharomyces cerevisiae (W303). Put plainly: Yeast growth inhibition assay. In kind it is cell-based. The note with it: wild-type W303.
From the text: as §3, §4

Another data set relates to E. coli DH10T1R. Put plainly: MIC assay, E. coli. In kind it is cell-based, Escherichia coli. The settings on record: in the presence of PMBN (2 μg/mL). The protocol:
as §1, §2

In data set [3] the target is T1, E. coli RNAPc with recombinant σ^70 (holoenzyme) (Escherichia coli, UniProt P0A8T7).
T1 construct: purchased New England BioLabs
T1 sequence (P0A8T7 whole entry): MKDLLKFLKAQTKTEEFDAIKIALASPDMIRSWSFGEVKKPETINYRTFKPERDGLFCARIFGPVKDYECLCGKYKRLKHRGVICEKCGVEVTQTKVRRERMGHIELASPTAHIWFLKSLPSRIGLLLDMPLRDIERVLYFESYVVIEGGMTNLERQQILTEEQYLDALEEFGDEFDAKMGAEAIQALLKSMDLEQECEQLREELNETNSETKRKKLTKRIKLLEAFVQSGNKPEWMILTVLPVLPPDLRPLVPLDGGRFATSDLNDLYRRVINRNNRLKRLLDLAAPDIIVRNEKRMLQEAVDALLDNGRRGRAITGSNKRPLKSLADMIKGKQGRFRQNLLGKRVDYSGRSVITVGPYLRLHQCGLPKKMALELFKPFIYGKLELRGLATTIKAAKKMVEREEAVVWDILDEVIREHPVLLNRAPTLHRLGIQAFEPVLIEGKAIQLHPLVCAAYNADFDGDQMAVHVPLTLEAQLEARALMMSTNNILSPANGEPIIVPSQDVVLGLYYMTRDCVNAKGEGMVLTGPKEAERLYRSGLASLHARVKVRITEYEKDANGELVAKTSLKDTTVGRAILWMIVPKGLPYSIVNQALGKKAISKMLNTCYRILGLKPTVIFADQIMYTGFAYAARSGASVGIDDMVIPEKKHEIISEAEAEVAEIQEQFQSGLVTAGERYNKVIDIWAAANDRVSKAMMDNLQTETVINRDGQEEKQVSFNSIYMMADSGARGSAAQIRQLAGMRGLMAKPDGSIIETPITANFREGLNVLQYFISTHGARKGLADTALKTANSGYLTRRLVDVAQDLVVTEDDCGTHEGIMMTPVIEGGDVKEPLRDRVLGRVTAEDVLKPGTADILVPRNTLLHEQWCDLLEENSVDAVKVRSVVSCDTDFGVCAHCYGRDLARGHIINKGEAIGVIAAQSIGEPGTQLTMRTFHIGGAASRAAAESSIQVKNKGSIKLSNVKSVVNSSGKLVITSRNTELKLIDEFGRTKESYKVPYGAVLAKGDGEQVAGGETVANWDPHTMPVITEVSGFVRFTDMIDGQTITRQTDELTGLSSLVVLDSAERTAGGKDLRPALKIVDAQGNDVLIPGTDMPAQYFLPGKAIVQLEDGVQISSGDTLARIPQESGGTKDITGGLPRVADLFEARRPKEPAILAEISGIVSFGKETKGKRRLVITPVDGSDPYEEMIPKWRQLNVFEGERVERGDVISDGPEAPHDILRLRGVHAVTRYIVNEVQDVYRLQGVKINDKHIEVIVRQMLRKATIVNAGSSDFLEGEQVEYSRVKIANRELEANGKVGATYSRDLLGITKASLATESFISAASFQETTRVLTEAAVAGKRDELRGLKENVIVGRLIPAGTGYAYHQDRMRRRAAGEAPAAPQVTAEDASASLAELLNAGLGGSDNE
T1 sequence (P0A8V2 whole entry partner): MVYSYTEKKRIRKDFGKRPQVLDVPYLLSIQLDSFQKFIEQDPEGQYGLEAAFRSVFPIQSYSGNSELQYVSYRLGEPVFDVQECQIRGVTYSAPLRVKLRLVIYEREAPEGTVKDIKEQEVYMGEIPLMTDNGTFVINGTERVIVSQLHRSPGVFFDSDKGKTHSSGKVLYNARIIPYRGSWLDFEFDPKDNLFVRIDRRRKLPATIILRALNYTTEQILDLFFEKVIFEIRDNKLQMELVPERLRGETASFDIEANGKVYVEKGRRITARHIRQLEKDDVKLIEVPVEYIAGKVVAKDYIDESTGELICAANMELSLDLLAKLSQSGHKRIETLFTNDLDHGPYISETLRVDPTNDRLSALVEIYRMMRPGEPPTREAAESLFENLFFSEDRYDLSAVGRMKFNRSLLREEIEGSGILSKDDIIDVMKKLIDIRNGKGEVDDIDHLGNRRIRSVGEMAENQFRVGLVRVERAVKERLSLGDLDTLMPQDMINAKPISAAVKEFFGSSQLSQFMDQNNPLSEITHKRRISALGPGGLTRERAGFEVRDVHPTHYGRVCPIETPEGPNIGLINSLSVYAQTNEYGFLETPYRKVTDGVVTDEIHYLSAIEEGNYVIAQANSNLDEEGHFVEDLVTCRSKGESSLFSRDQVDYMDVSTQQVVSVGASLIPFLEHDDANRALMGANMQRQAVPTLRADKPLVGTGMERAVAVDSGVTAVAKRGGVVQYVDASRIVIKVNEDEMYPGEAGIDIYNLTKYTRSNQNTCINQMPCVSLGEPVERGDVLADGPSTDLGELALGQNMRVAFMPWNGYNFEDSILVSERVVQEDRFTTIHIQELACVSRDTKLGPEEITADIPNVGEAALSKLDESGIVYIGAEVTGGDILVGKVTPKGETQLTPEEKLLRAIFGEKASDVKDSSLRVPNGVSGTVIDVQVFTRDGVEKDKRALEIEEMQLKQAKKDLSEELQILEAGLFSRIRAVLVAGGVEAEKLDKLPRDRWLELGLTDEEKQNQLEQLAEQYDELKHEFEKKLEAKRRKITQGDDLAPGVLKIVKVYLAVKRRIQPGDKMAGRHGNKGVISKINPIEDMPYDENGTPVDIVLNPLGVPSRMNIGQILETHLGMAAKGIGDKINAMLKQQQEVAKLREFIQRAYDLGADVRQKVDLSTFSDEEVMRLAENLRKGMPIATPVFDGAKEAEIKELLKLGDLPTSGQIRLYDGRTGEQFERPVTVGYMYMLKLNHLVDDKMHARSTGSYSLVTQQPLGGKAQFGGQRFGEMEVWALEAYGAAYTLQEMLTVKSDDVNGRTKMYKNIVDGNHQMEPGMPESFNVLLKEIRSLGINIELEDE
T1 sequence (P0A7Z4 whole entry partner): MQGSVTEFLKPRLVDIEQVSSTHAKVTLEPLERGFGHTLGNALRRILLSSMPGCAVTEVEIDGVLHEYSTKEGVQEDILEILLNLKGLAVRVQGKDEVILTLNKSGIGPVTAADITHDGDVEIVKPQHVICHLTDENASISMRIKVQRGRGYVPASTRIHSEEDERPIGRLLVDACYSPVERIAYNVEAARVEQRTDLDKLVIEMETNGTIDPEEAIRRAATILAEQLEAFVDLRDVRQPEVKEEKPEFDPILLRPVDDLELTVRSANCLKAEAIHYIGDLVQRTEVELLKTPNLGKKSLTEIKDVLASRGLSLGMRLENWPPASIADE
T1 sequence (P0A800 whole entry partner): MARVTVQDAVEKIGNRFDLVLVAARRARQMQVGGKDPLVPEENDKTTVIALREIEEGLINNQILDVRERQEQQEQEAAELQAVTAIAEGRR
Put plainly: Fluorescence-detected single-round in vitro transcription assay. The data set is classed as biochemical. The note with it: fluorescence-based assay.
Procedure: A single-round transcription assay was first performed at a fixed, 100 µM concentration.
A fluorescence-detected RNAP inhibition assay with the profluorescent substrate γ-[2′(2-benzothiazoyl)-6′-hydroxybenzothiazole)-ATP (γ-BBT-ATP, Jena Bioscience, Jena, Thuringia, Germany) was performed to verify the ability of the selected compounds to inhibit the specific transcription activity of bacterial RNA polymerase, using E. coli RNAPc (New England BioLabs, Ipswich, MA, USA) and recombinant His-tagged-σ^70 for holoenzyme reconstitution.
Two nM of a circular DNA template (pDSP) [38] were then added to a final volume of 7 µL and the resulting reaction mixture was incubated at 37 °C for 15 min. The pDSP template is a 6135 bp vector harboring two identical λpR promoters upstream of engineered, cytosine-lacking (C-less) DNA regions. When CTP is omitted from the reaction mixture, transcription reinitiation is prevented, and this allows for the single-round transcription of 24 nt and 70 nt long RNAs. […]
Ten µL of the reaction was transferred to a black 384-well plate (PE384fw_ProxiPlate) and fluorescence emission was read with Spark 10M, Tecan (Männedorf, canton of Zürich, Switzerland) (excitation wavelength 422 nm; emission wavelength 590 nm).

The target of data set [4] is T2, β′–σ^70 PPI (GST-β′ aa 1–334 / His-tagged σ^70) (Escherichia coli, UniProt P0A8T7).
T2 construct: 50 nM GST-β′ (aa 1–334); made in house; host or cells: bacterial expression (pET28-b / pGEX4-T3 vectors)
T2 sequence (P0A8T7 1-334): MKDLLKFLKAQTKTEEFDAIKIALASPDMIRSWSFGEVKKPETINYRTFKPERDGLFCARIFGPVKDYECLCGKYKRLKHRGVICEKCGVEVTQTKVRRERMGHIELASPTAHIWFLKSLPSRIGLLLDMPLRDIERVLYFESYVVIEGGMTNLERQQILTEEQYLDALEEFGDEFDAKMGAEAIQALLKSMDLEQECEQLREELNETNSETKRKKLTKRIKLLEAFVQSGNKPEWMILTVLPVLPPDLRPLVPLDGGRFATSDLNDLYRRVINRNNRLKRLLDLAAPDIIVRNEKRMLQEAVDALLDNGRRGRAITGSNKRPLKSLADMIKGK
Put plainly: Competitive ELISA of β′–σ^70 interaction. In kind it is binding, E. coli. The note with it: for IC50: read-out: Binding Inhibition IC50 ± SD; for inhibition at 100 µM: fixed concentration of 100 μM, read-out: β′–σ70 binding inhibition, ELISA 100 μM (percentage inhibition ± SD). As to the method:
In this in vitro set-up, individual candidate molecules (each at 100 µM concentration) were incubated with β’ before the addition of σ^70 and assessment of interaction reconstitution with an antibody directed against the σ^70 fusion tag. Eighteen of the 28 yBRET-positive compounds were thus confirmed as true inhibitors of the β’–σ^70 PPI (i.e., they inhibited the interaction by at least 50%); their structures and percentage inhibition values are reported in Table S1.
The production of recombinant proteins, the standard ELISA, and the “reverse” ELISA were performed following the protocols described in Sartini et al.. The full-length sequence coding for E. coli σ^70 was cloned into a modified pET28-b in-frame with an N-terminal 6xHis tag-sequence and was expressed in LB medium for 3 h at 30 °C following addition of 1 mM isopropyl-β-D-thiogalactopyranoside (IPTG).
The RNAP β’ 1–334 aa. coding sequence was cloned into a modified pGEX4-T3 expression vector (Amersham Biosciences, Amersham, Buckinghamshire, England) and was expressed for 24 h at 20 °C under auto-induction conditions (Auto Induction Medium, AIM-LB broth base; ForMedium™, Swaffham, Norfolk, England). Due to the failure of affinity purification on a glutathione-Sepharose column, the unfractionated whole cell supernatant was used directly as a GST-tagged source for ELISA.
For the standard ELISA, His-tagged- σ^70 was diluted to 250 nM with PBS and 100 μL of the resulting solution was added to the wells of SpectraPlate-96 HB microtitre plates (PerkinElmer, Waltham, MA, USA). After an overnight incubation at 4 °C, the wells were washed with PBS and blocked at room temperature for 2 h with 400 μL of 1% (w/v) BSA dissolved in PBS. Subsequently, 100 μL of supernatant diluted in PBS containing 50 nM GST-β′ (aa 1–334) was incubated for 10 min at 37 °C with 2.5 μL of each compound dissolved in DMSO at different concentrations (or with 2.5 μL of DMSO). The addition first of the polyclonal rabbit anti-GST primary antibody (1:2000 in PBS) (Abcam, Cambridge, Cambridgeshire, England) and after incubation, of the horseradish peroxidase-conjugated goat anti-rabbit secondary antibody diluted 1:20,000 in PBS (Invitrogen™ by Life Technologies™, Carlsbad, CA, USA) allowed the detection of the interaction using the substrate for 2,2’-Azino-bis (3-Ethylbenzthiazoline-6-Sulphonic Acid) peroxidase (ABTS; SeraCare Life Sciences, Milford, MA, USA). The signal resulting from the oxidation of ABTS was determined by measuring the absorbance at 415 nm with a microplate reader (iMark™ Microplate Absorbance Reader; Bio-Rad, Hercules, CA, USA).

The test system of the next data set is E. coli (DH10T1R strain). Put plainly: Bacterial growth inhibition assay, E. coli. In kind it is cell-based, Escherichia coli. The note with it: for inhibition at 100 µM: 8 h, in the presence of PMBN (2 μg/mL).
From the text: as §3, §1, §4

The values below come from PMC9598883, “An Optimized Workflow for the Discovery of New Antimicrobial Compounds Targeting Bacterial RNA Polymerase Complex Formation” (Antibiotics, 2022).

Values after ≈ are worked out from the molar mass of the structure shown.

Turning to `COc1cc(OC)c2c(-c3ccc(Cl)cc3)c[nH]c2c1C(=O)NNC(=O)c1c(OC)cc(OC)c2c(-c3ccc(Cl)cc3)c[nH]c12` [GKL003], the “Concentration interfering with in vitro transcription initiation” value in the data set with β′ subunit (RNAP) was “nanomolar concentrations”.

Broadly, the MIC is the lowest concentration that inhibits growth of the organism. Low readings indicate inhibition by little substance, high ones a need for much substance. Broadly, the IC50 is the concentration needed to halve the response being measured. Take `O=C(CSc1nc2ccccc2[nH]1)c1ccc2[nH]c3ncc(Cl)cc3c2c1` [Compound 19]: the MIC against B. subtilis WB800N is 100 µM (≈ 39.3 µg/mL). The figures for the “B. subtilis growth inhibition over time” value in data set [1] (50 µM) and in data set [1] (only at 100 µM) were “almost completely inhibited” and “significantly inhibited”, respectively. In data set [1] (50 µM), the “Duration of antibacterial activity, B. subtilis” value was 4 h. The results for the inhibition at 100 µM (in data set [1]; in data set [4]; in the data set on E. coli (DH10T1R strain) (Escherichia coli)) were 37%, 94 ± 1% and 0%, respectively. For the same molecule, the “Growth Inhibition at 100 μM (8 h) S. cerevisiae” value (“Growth Inhibition at 100 μM” below) in data set [2] came out at 0%. In addition, in the data set with E. coli DH10T1R, the “MIC E. coli” value was greater than 100 µM. Also, the IC50 came to 25.7 ± 1.85 µM in data set [3] and 40 ± 4.2 µM in data set [4] (dose–response ELISA). The “Fold less potent than reference compound 4 (binding inhibition IC50)” value in data set [4] (dose–response ELISA) is recorded as 5 fold.

`COc1ccc(-c2ccc(-c3oc4cc(OC(C)=O)ccc4c3OC(C)=O)cc2)cc1OC` [Compound 9]: in the data set with B. subtilis WB800N, the MIC is greater than 100 µM. Further, the results for the inhibition at 100 µM (in data set [1]; in data set [4]; with E. coli (DH10T1R strain) (Escherichia coli)) were 24%, 100% and 24%, respectively. For the same molecule, the “B. subtilis growth inhibition” value in data set [1] (concentrations ≤ 100 µM) is reported as “failed to exert any appreciable inhibitory activity”. In addition, the “Growth Inhibition at 100 μM” value in data set [2] is recorded as 0%. Further, the “MIC E. coli” value in the data set with E. coli DH10T1R is greater than 100 µM. Moreover, the values for the IC50 in data set [3] and in data set [4] (dose–response ELISA) were 71 ± 2.46 µM and 13.9 ± 1.86 µM, respectively. For the same molecule, the “E. coli growth inhibition” value in the data set on E. coli (DH10T1R strain) (concentrations ≤ 100 µM) is reported as “failed to exert any appreciable inhibitory activity”.

`N#Cc1cc2cnccc2c2[nH]c3ncc(F)cc3c12` [Compound 7]: in the data set with B. subtilis WB800N, the “MIC B. subtilis” value was “did not inhibit B. subtilis growth” and the MIC is greater than 100 µM. For the same molecule, the inhibition at 100 µM in data set [1] was 13%. Further, the “Growth Inhibition at 100 μM” value in data set [2] stood at 7%. For the same molecule, the “MIC E. coli” value in the data set on E. coli DH10T1R was determined as 0.78 µM. Moreover, the IC50 in data set [4] (dose–response ELISA) came out at 8.56 ± 1.82 µM. In addition, in data set [4], the inhibition at 100 µM came out at 86 ± 9%. Also, in the data set on E. coli (DH10T1R strain) (50 µM), the “Duration of antibacterial activity, E. coli” value is 4 h and the “E. coli growth inhibition over time” value is listed as “almost completely inhibited”. In addition, the inhibition at 10 µM in the data set on E. coli (DH10T1R strain) (Escherichia coli, 10 µM, 8 h observation, with PMBN, read-out: E. coli growth inhibition at lowest concentration) worked out at 38%. In addition, in the data set with E. coli (DH10T1R strain) (Escherichia coli), the inhibition at 100 µM stood at 66%.
